Measurements taken from PubChem BioAssay (NCI).
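Five compound concentrations were applied to cells in 96-well plates for 48 hours; endpoints were derived by simple linear interpolation of the resulting dose-response curve. At the TGI there is no net growth.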

The compounds below were run on SR leukemia (assay: NCI-60 cell line screen, 48 h).

Going from O=P(O)(O)CN1CCN(CP(=O)(O)O)CCN(CP(=O)(O)O)CCN(CP(=O)(O)O)CC1 to CC(C)NC(=O)OCc1c(COC(=O)NC(C)C)c(-c2ccc[n+](COC(=O)CC(C)(C)C)c2)n2c1CCC2, the TGI rises from 95.9 µM to over 100 µM.

C=C(C)[C@@H](C(=O)OC)N1C(=O)c2ccccc2C1=O and CCCN(CCCCC(NC(C)=O)C(=O)NCc1ccccc1)C(=O)N(CCCl)N=O (stereo not given) cannot be ordered by TGI: over 100 µM for the first, over 100 µM for the second.

CO/N=C(\C(=O)Nc1cncs1)c1csc(NC(c2ccccc2)(c2ccccc2)c2ccccc2)n1 and O=C(CNc1ccc(Cl)cc1)Nn1c(-c2ccccc2)nc2ccccc2c1=O cannot be ordered by TGI: over 10 µM for the first, over 52.1 µM for the second.

Compared with COc1cc(C2c3cc4c(cc3[C@H](OCCN(C)C)[C@@H]3COC(=O)C23)OCO4)cc(OC)c1O (stereo not given in full), CCCCn1c(C)c(C(=O)OCC)c2cc(OCc3ccc(C(=O)Nn4c(C)ccc4C)cc3)c(Br)cc21 is higher in TGI: 0.778 µM for the first, over 100 µM for the second.

O=C(CC(=O)N(C(=O)c1ccccc1)c1ccc(Cl)cc1)N/N=C\c1cc(N=Nc2ccccc2Cl)ccc1O and CN1CCC(OC(=O)Oc2ccccc2)(c2ccccc2)CC1 are within 1.5-fold of each other in TGI: 35.8 µM for the first, 42.6 µM for the second.

Cc1cccc2c(N)c3cccc(C(=O)NCCCNCCN)c3nc12 and CCOC(=O)/C(O)=C(/C=NC(=S)c1ccncc1)C(=O)OCC cannot be ordered by TGI: over 82.9 µM for the first, over 100 µM for the second.

These compounds were tested on SF-295 CNS (assay: NCI-60 cell line screen, 48 h).

Cc1nc(N)c(N2CCNCC2)c(=O)[nH]1 and O=c1[nH]nc(-c2cccc(Br)c2)[nH]1 cannot be ordered by TGI: over 100 µM for the first, over 100 µM for the second.

First: Brc1ccc2c(-c3nc(-c4c[nH]c5ccc(Br)cc45)cs3)c[nH]c2c1
Second: CCCCn1c(C)c(C(=O)OCC)c2cc(OCc3ccc(C(=O)Nn4c(C)ccc4C)cc3)c(Br)cc21
The TGI of the first is lower: 17.8 µM for the first, over 100 µM for the second.

Going from O=C1NNC(=O)C2C3c4ccccc4C(c4ccccc43)C12 (stereo not given) to O=C(CNc1ccc(Cl)cc1)Nn1c(-c2ccccc2)nc2ccccc2c1=O, the TGI falls from over 100 µM to 29.8 µM.

CCOC(=O)C(Cl)(NC(=O)c1ccc(F)cc1)C(F)(F)F (stereo not given) and CCOC(=O)/C(O)=C(/C=NC(=S)c1ccncc1)C(=O)OCC cannot be ordered by TGI: over 100 µM for the first, over 100 µM for the second.

COc1ccccc1N1C(=O)/C(=C\c2cccc(Oc3ccccc3)c2)SC1c1ccccc1 (stereo not given) and CO/N=C(\C(=O)Nc1cncs1)c1csc(NC(c2ccccc2)(c2ccccc2)c2ccccc2)n1 cannot be ordered by TGI: over 100 µM for the first, over 10 µM for the second.

Cc1ccc(S(=O)(=O)OC2C3OC(C)(C)OC3OC2C(c2cc(O)c3c(c2O)C(=O)c2ccccc2C3=O)c2cc(O)c3c(c2O)C(=O)c2ccccc2C3=O)cc1 (stereo not given) and O=C(CC(=O)N(C(=O)c1ccccc1)c1ccc(Cl)cc1)N/N=C\c1cc(N=Nc2ccccc2Cl)ccc1O cannot be ordered by TGI: over 10 µM for the first, over 100 µM for the second.

Compared with N#Cc1nc(COCCOCc2ccccc2)oc1N, Cc1cccc2c(N)c3cccc(C(=O)NCCCNCCN)c3nc12 is lower in TGI: over 100 µM for the first, 20.9 µM for the second.

CC1CN=C(Nc2ccc(S(N)(=O)=O)cc2)S1 (stereo not given) and C=C(C)[C@@H](C(=O)OC)N1C(=O)c2ccccc2C1=O cannot be ordered by TGI: over 100 µM for the first, over 100 µM for the second.

First: COC1(OC)C2(Cl)CCC1(Cl)C(OC(C)=O)C2 (stereo not given)
Second: CN1CCC(OC(=O)Oc2ccccc2)(c2ccccc2)CC1
The TGI of the first is higher: over 100 µM for the first, 55.4 µM for the second.

O=P(O)(O)CN1CCN(CP(=O)(O)O)CCN(CP(=O)(O)O)CCN(CP(=O)(O)O)CC1 and CC(C)NC(=O)OCc1c(COC(=O)NC(C)C)c(-c2ccc[n+](COC(=O)CC(C)(C)C)c2)n2c1CCC2 cannot be ordered by TGI: over 100 µM for the first, over 100 µM for the second.

Compared with CCCN(CCCCC(NC(C)=O)C(=O)NCc1ccccc1)C(=O)N(CCCl)N=O (stereo not given), COc1cc(C2c3cc4c(cc3[C@H](OCCN(C)C)[C@@H]3COC(=O)C23)OCO4)cc(OC)c1O (stereo not given in full) is lower in TGI: over 100 µM for the first, 0.583 µM for the second.

These compounds were tested on SF-539 CNS (assay: NCI-60 cell line screen, 48 h).

Cc1nc(N)c(N2CCNCC2)c(=O)[nH]1 and O=c1[nH]nc(-c2cccc(Br)c2)[nH]1 cannot be ordered by TGI: over 100 µM for the first, over 100 µM for the second.

Compared with Brc1ccc2c(-c3nc(-c4c[nH]c5ccc(Br)cc45)cs3)c[nH]c2c1, O=C1NNC(=O)C2C3c4ccccc4C(c4ccccc43)C12 (stereo not given) is higher in TGI: 18.1 µM for the first, over 100 µM for the second.

CCOC(=O)C(Cl)(NC(=O)c1ccc(F)cc1)C(F)(F)F (stereo not given) and C=C(C)[C@@H](C(=O)OC)N1C(=O)c2ccccc2C1=O cannot be ordered by TGI: over 100 µM for the first, over 100 µM for the second.

COc1ccccc1N1C(=O)/C(=C\c2cccc(Oc3ccccc3)c2)SC1c1ccccc1 (stereo not given) and CO/N=C(\C(=O)Nc1cncs1)c1csc(NC(c2ccccc2)(c2ccccc2)c2ccccc2)n1 cannot be ordered by TGI: over 100 µM for the first, over 10 µM for the second.

Cc1ccc(S(=O)(=O)OC2C3OC(C)(C)OC3OC2C(c2cc(O)c3c(c2O)C(=O)c2ccccc2C3=O)c2cc(O)c3c(c2O)C(=O)c2ccccc2C3=O)cc1 (stereo not given) and O=C(CNc1ccc(Cl)cc1)Nn1c(-c2ccccc2)nc2ccccc2c1=O cannot be ordered by TGI: over 10 µM for the first, 14.9 µM for the second.

Going from N#Cc1nc(COCCOCc2ccccc2)oc1N to CCCN(CCCCC(NC(C)=O)C(=O)NCc1ccccc1)C(=O)N(CCCl)N=O (stereo not given), the TGI falls from over 100 µM to 41.1 µM.

CC1CN=C(Nc2ccc(S(N)(=O)=O)cc2)S1 (stereo not given) and CC(C)NC(=O)OCc1c(COC(=O)NC(C)C)c(-c2ccc[n+](COC(=O)CC(C)(C)C)c2)n2c1CCC2 cannot be ordered by TGI: over 100 µM for the first, over 100 µM for the second.

COC1(OC)C2(Cl)CCC1(Cl)C(OC(C)=O)C2 (stereo not given) and O=P(O)(O)CN1CCN(CP(=O)(O)O)CCN(CP(=O)(O)O)CCN(CP(=O)(O)O)CC1 cannot be ordered by TGI: over 100 µM for the first, over 100 µM for the second.
